Assay [1] deals with ovarian cancers. Conditions: Becket et al., DDT 1996, 1 (1), 16; cited from earlier work.
Assay [2] has as its target T1, MMP-1 (interstitial collagenase) (Homo sapiens, UniProt P03956).
T1 sequence (P03956 100-469): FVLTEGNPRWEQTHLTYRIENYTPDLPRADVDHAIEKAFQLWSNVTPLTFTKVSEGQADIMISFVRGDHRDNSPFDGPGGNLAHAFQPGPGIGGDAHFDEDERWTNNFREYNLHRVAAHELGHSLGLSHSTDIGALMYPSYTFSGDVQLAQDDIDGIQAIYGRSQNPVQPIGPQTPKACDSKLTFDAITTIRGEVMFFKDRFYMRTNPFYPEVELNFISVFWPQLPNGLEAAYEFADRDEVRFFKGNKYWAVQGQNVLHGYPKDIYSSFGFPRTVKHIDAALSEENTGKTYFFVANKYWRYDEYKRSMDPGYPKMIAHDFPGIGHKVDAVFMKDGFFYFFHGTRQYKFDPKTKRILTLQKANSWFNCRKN
The experiment in a line: Enzymatic Inhibition of Metalloproteinases (MMP-1). The class given is biochemical. As to conditions: 20 μM substrate, pH 7.7, 37° C., six hours; read-out: IC50 for the enzyme MMP-1. As for the experimental part: (§1) Enzymatic Inhibition of Metalloproteinases
(§2) Four recombinant human enzymes MMP-1 (interstitial collagenase), MMP-2 (72 kDa gelatinase A), MMP-3 (stromelysin 1) and MMP-9 (92 kDa gelatinase B) are activated with APMA (4-aminophenylmercuric acetate).
(§3) The enzymatic tests are carried out using a peptido-mimetic substrate:
(§4) DnpProChaGlyCys(Me)HisAlaLys(Nma)NH2,
(§5) which is cleaved between the glycine and the cysteine to yield a fluorescent derivative (Anal. Biochem., 212, 58-64, 1993).
(§6) The reactions, carried out in a buffer of 50 mM Tris, 200 mM NaCl, 5 mM CaCl2, 0.1% Brij 35 at pH 7.7, are initiated using 20 μM substrate in a total volume of 100 μl at 37° C. The fluorescence obtained after six hours is read in a 96-well plate in a fluorimeter equipped with a combination of 340 nm and 400 nm filters for excitation and emission.

Assay [3] relates to neovascularisation (pseudo-vessels) from portions of thoracic aorta. Nature of the assay: In Vitro Angiogenesis (thoracic aorta portions in type I collagen gel). The class given is cell-based, male Fischer 344 rats. Conditions: Rattus norvegicus, 120 h, five days of culture in a medium without serum, vascular density. The source says:
Portions of thoracic aorta of male Fischer 344 rats aged from 8 to 12 weeks are immersed in a type I collagen gel according to the method of Nicosia et Ottinetti (1990). After five days of culture in a medium without serum, the preparations are examined using a microscope and the formation of pseudo-vessels is quantified in terms of vascular density after digitisation and image analysis.

Assay [4] has as its target T2, MMP-2 (72 kDa gelatinase A) (Homo sapiens, UniProt P08253).
T2 sequence (P08253 110-660): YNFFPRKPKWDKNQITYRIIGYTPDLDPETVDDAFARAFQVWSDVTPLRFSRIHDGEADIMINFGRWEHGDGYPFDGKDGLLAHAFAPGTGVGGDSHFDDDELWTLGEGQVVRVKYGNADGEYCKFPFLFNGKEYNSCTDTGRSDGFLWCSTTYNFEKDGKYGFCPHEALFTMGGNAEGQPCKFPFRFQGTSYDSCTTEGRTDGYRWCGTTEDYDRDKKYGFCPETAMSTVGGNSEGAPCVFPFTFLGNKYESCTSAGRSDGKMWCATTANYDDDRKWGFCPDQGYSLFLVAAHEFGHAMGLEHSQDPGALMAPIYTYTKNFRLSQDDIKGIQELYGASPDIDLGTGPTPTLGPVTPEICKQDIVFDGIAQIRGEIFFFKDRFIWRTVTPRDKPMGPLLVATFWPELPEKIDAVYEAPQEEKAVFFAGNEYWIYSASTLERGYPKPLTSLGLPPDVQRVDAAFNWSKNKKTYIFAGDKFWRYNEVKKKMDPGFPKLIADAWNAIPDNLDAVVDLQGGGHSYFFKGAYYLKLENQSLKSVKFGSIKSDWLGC
Nature of the assay: Enzymatic Inhibition of Metalloproteinases (MMP-2). The class given is biochemical. Conditions: 20 μM substrate, pH 7.7, 37° C., six hours; read-out: IC50 for the enzyme MMP-2. As for the experimental part: as §1, §2, §3, §4, §5, §6

Assay [5] deals with MMP-3 (stromelysin 1) (Homo sapiens, UniProt P08254). Nature of the assay: Enzymatic Inhibition of Metalloproteinases (MMP-3). The class given is biochemical. As to conditions: 20 μM substrate, pH 7.7, 37° C., six hours; read-out: IC50 for the enzyme MMP-3. On the procedure:
as §1, §2, §3, §4, §5, §6

For assay [6], the target named is MMP-9 (92 kDa gelatinase B) (Homo sapiens, UniProt P14780). Nature of the assay: Enzymatic Inhibition of Metalloproteinases (MMP-9). It is filed as biochemical. As to conditions: 20 μM substrate, pH 7.7, 37° C., six hours; read-out: IC50 for the enzyme MMP-9. On the procedure:
as §1, §2, §3, §4, §5, §6

Data on five molecules can be found in patent US6066633A, “Metalloproteinase inhibitors” (Adir et Compagnie, priority 1997, dated 2000).

As usually defined, the IC50 is the concentration needed to halve the response being measured. A word on the inhibition: it is the relative decrease from the control value, in per cent.

Where a name gives a salt, the structure may show the parent alone.

Sequence of MMP-3 (stromelysin 1) (P08254 100-477): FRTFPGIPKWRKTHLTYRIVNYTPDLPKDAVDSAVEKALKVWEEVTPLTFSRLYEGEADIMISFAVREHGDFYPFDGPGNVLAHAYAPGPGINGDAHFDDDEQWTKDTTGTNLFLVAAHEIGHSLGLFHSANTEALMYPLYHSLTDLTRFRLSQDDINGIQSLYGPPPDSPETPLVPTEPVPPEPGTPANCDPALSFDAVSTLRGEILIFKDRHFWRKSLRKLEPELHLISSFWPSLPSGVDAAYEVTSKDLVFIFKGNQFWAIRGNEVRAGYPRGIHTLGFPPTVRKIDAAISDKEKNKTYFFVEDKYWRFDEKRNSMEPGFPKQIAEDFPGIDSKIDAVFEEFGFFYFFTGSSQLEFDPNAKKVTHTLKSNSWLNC
Sequence of MMP-9 (92 kDa gelatinase B) (P14780 107-707 limits assumed): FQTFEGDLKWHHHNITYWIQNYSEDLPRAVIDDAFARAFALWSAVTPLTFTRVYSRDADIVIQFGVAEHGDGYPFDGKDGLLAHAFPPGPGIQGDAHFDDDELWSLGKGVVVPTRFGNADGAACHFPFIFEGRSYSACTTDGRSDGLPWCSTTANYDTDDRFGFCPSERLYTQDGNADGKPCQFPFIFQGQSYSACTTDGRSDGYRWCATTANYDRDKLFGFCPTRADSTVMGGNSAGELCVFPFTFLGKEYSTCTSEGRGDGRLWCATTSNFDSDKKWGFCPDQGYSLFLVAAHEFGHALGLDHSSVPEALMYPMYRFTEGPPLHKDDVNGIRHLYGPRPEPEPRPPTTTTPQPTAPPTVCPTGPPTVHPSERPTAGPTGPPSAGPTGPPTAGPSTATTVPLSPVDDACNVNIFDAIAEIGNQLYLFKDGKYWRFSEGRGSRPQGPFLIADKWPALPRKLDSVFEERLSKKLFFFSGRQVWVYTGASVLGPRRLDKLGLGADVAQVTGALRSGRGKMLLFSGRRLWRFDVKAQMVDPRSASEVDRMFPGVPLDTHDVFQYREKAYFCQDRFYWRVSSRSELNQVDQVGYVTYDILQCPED

For the molecule `CNC(=O)C(Cc1ccccc1)NC(=O)C(CC(C)C)C(CSc1cccs1)C(=O)NO` (centres unmarked) [BB94], in assay [1], the “anti-tumour activity in clinical use” value is “active in ovarian cancers”.
For `COc1ccc(S(=O)(=O)N2Cc3c(c4ccccc4n3CC(=O)NCCN3CCOCC3)C[C@@H]2C(=O)NO)cc1` [Example 2, 2-[(4-Methoxyphenyl)sulphonyl]-9-[(2-morpholin-4-ylethylcarbamoyl)methyl]-2,3,4,9-tetrahydro-1H-β-carboline-(3R)-(N-hydroxy)carboxamide Acetate], the IC50 in assay [2] is 32.6 nM. For the same molecule, in assay [3], the inhibition at 1 µM fell in the range of 50 to 100%.
Regarding `COc1ccc(S(=O)(=O)N2Cc3c(c4ccccc4n3CC(=O)NCCSCCN3CCOCC3)C[C@@H]2C(=O)NO)cc1` [Example 11, 2-[(4-Methoxyphenyl)sulphonyl]-9-{[2-(2-morpholin-4-ylethylsulphanyl)ethylcarbamoyl]methyl}-2,3,4,9-tetrahydro-1H-β-carboline-(3R)-(N-hydroxy)carboxamide Hydrochloride], the IC50 in assay [4] stood at 1.6 nM; in assay [5], 3.1 nM; in assay [6], 0.1 nM.
`COc1ccc(S(=O)(=O)N2Cc3c(c4ccccc4n3CC(=O)NCCSCCCN3CCOCC3)C[C@@H]2C(=O)NO)cc1` [Example 13, 2-[(4-Methoxyphenyl)sulphonyl]-9-{[2-(3-morpholin-4-ylpropylsulphanyl)ethylcarbamoyl]methyl}-2,3,4,9-tetrahydro-1H-β-carboline-(3R)-(N-hydroxy)carboxamide Hydrochloride] returned an inhibition at 1 µM in assay [3] of 50 to 100%.
In the case of `COc1ccc(S(=O)(=O)N2Cc3c(c4ccccc4n3CC(=O)N(C)CCN3CCOCC3)C[C@@H]2C(=O)NO)cc1` [Example 15, 2-[(4-Methoxyphenyl)sulphonyl]-9-[N-methyl-(2-morpholin-4-ylethylcarbamoyl)methyl]-2,3,4,9-tetrahydro-1H-β-carboline-(3R)-(N-hydroxy)carboxamide Hydrochloride], the inhibition at 1 µM in assay [3] lay within 50 to 100%.
